From patent publication US20250019374A1, “PROTEIN TYROSINE PHOSPHATASE INHIBITORS AND METHODS OF USE THEREOF” (Calico Life Sciences LLC, priority 2021, published 2025)
Where two headings read alike, the source gives them in different places.

How the values were obtained:
[1] = molecular target: His tagged PTPN2 (TC45) protein (Homo sapiens (Human), UniProt P17706); assay: PTPN2 Mobility Shift Assay (MSA); format: biochemical; settings: for Dihydrobenzofuran or Indoline x-fold>potency biochemical: x-fold versus corresponding chromane comparator, PTPN2 MSA
Procedure: Example III-1: Mobility Shift Assay (MSA) Used to Determine Potency of PTPN2 Inhibitors
Compound activity was determined using in house His tagged PTPN2 (TC45) protein (SEQ ID NO: 1) in an in vitro enzymatic reaction. The enzymatic assay used to determine activity was a mobility shift assay using a LabChip EZ Reader by Caliper Life Sciences. The enzymatic reaction was carried out in assay buffer (50 mM HEPES pH 7.5, 1 mM EGTA, 10 mM EDTA, 0.01% Tween® 20, and 2 mM DTT). The compounds were dispensed on a white 384 well ProxiPlate™ (PerkinElmer Catalog #6008289) plate using the Labcyte Echo at varying concentrations (12 point, 1:3 dilution). The enzyme (at 0.5 nM) was incubated with compound for 10 minutes at room temperature. Thereafter, the substrate (phosphorylated insulin receptor probe sequence: ((OG488)-(NH—CH2—CH2—O—CH2—CH2—O—CH2—CO)-T-R-D-I—(PY)-E-T-D-Y—Y—R—K—K—NH2) (SEQ ID NO: 2) was added at 2 μM to the plates and incubated for another 10 minutes at room temperature. Finally, a quench solution (water and 4-bromo-3-(2-oxo-2-propoxyethoxy)-5-(3-{[1-(phenylmethanesulfonyl)piperidin-4-yl]amino}phenyl)thiophene-2-carboxylic acid) was added to the plates, which were then run on the EZ Reader (excitation 488 nm, emission 530 nm) to measure % conversion (the amount of phosphorylated substrate which was de-phosphorylated by PTPN2). […] The % inhibition was then used to calculate the IC50 values.

[2] = molecular target: His tagged full-length PTPN1 protein (Homo sapiens (Human), UniProt P18031); assay: PTPN1 Mobility Shift Assay (MSA); format: biochemical; settings: enzyme 0.5 nM, substrate 2 μM
Procedure: Example III-2: Mobility Shift Assay (MSA) Used to Determine Potency of PTPN1 Inhibitors
Compound activity was determined using in house His tagged full-length PTPN1 protein (SEQ ID NO: 3) in an in vitro enzymatic reaction. The enzymatic assay used to determine activity is a mobility shift assay using a LabChip EZ Reader by Caliper Life Sciences. The enzymatic reaction was carried out in assay buffer (50 mM HEPES pH 7.5, 1 mM EGTA, 10 mM EDTA, 0.01% Tween® 20, and 2 mM DTT). The compounds were dispensed on a white 384 well ProxiPlate™ (PerkinElmer Cat ^#6008289) plate using a Labcyte Echo® liquid handler at varying concentrations (12 point, 1:3 dilution). The enzyme (at 0.5 nM) was incubated with compound for 10 minutes at room temperature. Thereafter, the substrate (phosphorylated insulin receptor probe sequence: ((OG488)-(NH—CH2—CH2—O—CH2—CH2—O—CH2—CO)-T-R-D-I—(PY)-E-T-D-Y—Y—R—K—K—NH2) (SEQ ID NO: 2) was added at 2 μM to the plates and incubated for another 10 minutes at room temperature. Finally, a quench solution (water and 4-bromo-3-(2-oxo-2-propoxyethoxy)-5-(3-{[1-(phenylmethanesulfonyl)piperidin-4-yl]amino}phenyl)thiophene-2-carboxylic acid) was added to the plates, which were then run on the EZ Reader (excitation 488 nm, emission 530 nm) to measure % conversion (the amount of phosphorylated substrate which was de-phosphorylated by PTPN1). […] The % inhibition was then used to calculate the IC50 values.

[3] = tested on: IFNγ-induced STAT1 phosphorylation (pSTAT1) in B16F10 cells; assay: B16F10 Phospho-STAT1 HTRF proximal pharmacodynamic (PD) assay; format: cell-based, murine; settings: for EC50: B16-F10, B16F10 cells; for Dihydrobenzofuran or Indoline x-fold>potency cellular: x-fold versus corresponding chromane comparator, B16F10 pSTAT1
Procedure: Example III-3: B16F10 (Murine Melanoma Cells) Phospho-STAT1 HTRF Proximal Pharmacodynamic (PD) Assay
B16F10 cells were grown and maintained in high glucose DMEM (Gibco, Catalog^#11965-092, Dun Laoghaire Co Dublin) supplemented with 10% fetal bovine serum (Gibco, Catalog^#10082-139, Dun Laoghaire Co Dublin). The cells were pelleted and resuspended in high glucose DMEM without phenol red (Gibco, Catalog^#11054-020, Dun Laoghaire Co Dublin), supplemented with 10% fetal bovine serum and plated in a 384 well Corning plate (product^#3765, Corning, NY) at 11,000 cells per well in a volume of 20 μL. The cells were dosed with the compounds of interest using an Echo Liquid Handler (Beckman Coulter, Brea, CA) at 50 μM top dose with 3-fold dilutions down to 0.002679 μM for a 10-point dose response. The plate was incubated for 3 hours at 37° C. and subsequently treated with recombinant mouse IFNγ (R&D Systems, Catalog^#485-MI, Minneapolis, MN; 100 nM final concentration) for 10 minutes at 37° C. to induce STAT1 phosphorylation followed by 3.3 μM staurosporine treatment for 1 hour at 37° C. to terminate phosphorylation. Media was then aspirated and 20 μL of 1× lysis buffer/blocking reagent (Cisbio Phospho-STAT1 kit, part^# 63ADK026PEH, Bedford, MA) was added. The plate was placed on a plate shaker for 30 minutes at room temperature, sealed, and stored at −80° C. until needed. To thaw, the plate was placed on shaker at room temperature until completely thawed while the antibody master mix was made (1:40 Phospho-STAT1 Eu Cryptate antibody, 1:40 Phospho-STAT d2 antibody, with the detection buffer; Cisbio Phospho-STAT1 kit, part^#63ADK026PEH, Bedford, MA). The antibody master mix was then dispensed at 4 μL per well into a 384 ProxiPlate Plus (PerkinElmer, part^#6008289, Waltham, MA) and 16 μL of lysate was added from the Corning plate to the Proxiplate using a VIAFLO 384 (INTEGRA). The plate was incubated for 3 hours at room temperature and read on an EnVision® (Perkin Elmer) plate reader with laser excitation at 335 nm and emission at 665 nm. Dotmatics Studies (Bishop's Stortford, UK) was utilized to generate all dose-response curves and calculate EC50s and are shown in Table 2.

[4] = Table 3, dihydrobenzofuran or indoline compound (X = O or NH)
[5] = 3 hours compound, 100 nM mouse IFNγ 10 minutes, read-out: B16F10 IFNγ Induced pSTAT1 EC50
[6] = Mus musculus, Table 3, dihydrobenzofuran or indoline compound (X = O or NH), read-out: pSTAT1 EC50

Chain of His tagged PTPN2 (TC45) protein (P17706 other isoform, or with tags, fused parts or gaps): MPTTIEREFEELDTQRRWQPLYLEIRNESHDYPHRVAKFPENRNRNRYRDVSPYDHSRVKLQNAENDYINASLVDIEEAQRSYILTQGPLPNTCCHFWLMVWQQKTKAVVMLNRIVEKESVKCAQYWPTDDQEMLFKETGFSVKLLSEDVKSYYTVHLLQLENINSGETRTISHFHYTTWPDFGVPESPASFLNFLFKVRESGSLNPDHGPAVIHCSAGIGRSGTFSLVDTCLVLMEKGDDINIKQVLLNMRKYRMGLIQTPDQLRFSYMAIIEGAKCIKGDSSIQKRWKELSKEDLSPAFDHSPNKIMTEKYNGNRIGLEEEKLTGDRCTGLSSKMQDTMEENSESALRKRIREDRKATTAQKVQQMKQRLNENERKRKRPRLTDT
Chain of His tagged full-length PTPN1 protein (P18031 whole entry): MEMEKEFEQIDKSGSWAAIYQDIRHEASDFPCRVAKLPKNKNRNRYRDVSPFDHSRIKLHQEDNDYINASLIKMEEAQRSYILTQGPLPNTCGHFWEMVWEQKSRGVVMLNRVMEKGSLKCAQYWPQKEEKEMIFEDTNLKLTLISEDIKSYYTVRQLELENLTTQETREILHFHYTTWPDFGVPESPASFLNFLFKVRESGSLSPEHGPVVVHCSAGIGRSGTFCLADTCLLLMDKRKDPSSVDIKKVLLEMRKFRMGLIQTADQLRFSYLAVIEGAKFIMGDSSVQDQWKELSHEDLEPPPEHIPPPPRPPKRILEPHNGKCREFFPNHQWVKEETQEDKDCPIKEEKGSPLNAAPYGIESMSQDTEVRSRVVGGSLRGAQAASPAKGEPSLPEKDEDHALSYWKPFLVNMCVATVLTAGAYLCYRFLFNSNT

Compound | IC50 [2] [µM] | EC50 [3, 5] [µM] | EC50 [3, 6] [µM] | IC50 [1, 4] [µM] | IC50 ([1]; enzyme 0.5 nM, substrate 2 μM) [µM] | Dihydrobenzofuran or Indoline x-fold>potency biochemical [1] | Dihydrobenzofuran or Indoline x-fold>potency cellular [3]
O=C1CN(c2c(O)cc3c(c2F)C[C@H](CNCCC2CCOC2)O3)S(=O)(=O)N1 (stereo partly drawn) [Compound 108, 5-[(2R)-4-fluoro-6-hydroxy-2-({[2-(oxolan-3-yl)ethyl]amino}methyl)-2,3-dihydro-1-benzofuran-5-yl]-1λ^6,2,5-thiadiazolidine-1,1,3-trione] | 0.01 to 0.1 | 1.91 | 1.91 | 0.0158 | 0.01 to 0.1 | 2.3 | 11.8
CCCN(CCC)C[C@H]1Cc2c(cc(O)c(N3CC(=O)NS3(=O)=O)c2F)O1 [Compound 110, 5-{(2R)-2-[(dipropylamino)methyl]-4-fluoro-6-hydroxy-2,3-dihydro-1-benzofuran-5-yl}-1λ^6,2,5-thiadiazolidine-1,1,3-trione] | 0.01 to 0.1 | 18 | – | – | 0.01 to 0.1 | – | –
O=C1CN(c2c(O)cc3c(c2F)C[C@H](CNCC2CCCC2)O3)S(=O)(=O)N1 [Compound 113, 5-[(2R)-2-{[(cyclopentylmethyl)amino]methyl}-4-fluoro-6-hydroxy-2,3-dihydro-1-benzofuran-5-yl]-1λ^6,2,5-thiadiazolidine-1,1,3-trione] | 0.01 to 0.1 | 0.77 | – | – | 0.01 to 0.1 | – | –
O=C1CN(c2c(O)cc3c(c2F)C[C@H](CNCC2CCOCC2)O3)S(=O)(=O)N1 [Compound 114, 5-[(2R)-4-fluoro-6-hydroxy-2-({[(oxan-4-yl)methyl]amino}methyl)-2,3-dihydro-1-benzofuran-5-yl]-1λ^6,2,5-thiadiazolidine-1,1,3-trione] | 0.01 to 0.1 | 1.46 | – | – | 0.01 to 0.1 | – | –
O=C1CN(c2c(O)cc3c(c2F)C[C@H](CNCC2CC2)O3)S(=O)(=O)N1 [Compound 117, 5-[(2R)-2-{[(cyclopropylmethyl)amino]methyl}-4-fluoro-6-hydroxy-2,3-dihydro-1-benzofuran-5-yl]-1λ^6,2,5-thiadiazolidine-1,1,3-trione] | 0.01 to 0.1 | 0.818 | – | – | 0.01 to 0.1 | – | –
O=C1CN(c2c(O)cc3c(c2F)C[C@H](CN(CC2CC2)CC2CC2)O3)S(=O)(=O)N1 [Compound 118, 5-[(2R)-2-{[bis(cyclopropylmethyl)amino]methyl}-4-fluoro-6-hydroxy-2,3-dihydro-1-benzofuran-5-yl]-1λ^6,2,5-thiadiazolidine-1,1,3-trione] | 0.01 to 0.1 | 20.1 | – | – | 0.01 to 0.1 | – | –
O=C1CN(c2c(O)cc3c(c2F)C[C@H](CNCC2CCC2)O3)S(=O)(=O)N1 [Compound 119, 5-[(2R)-2-{[(cyclobutylmethyl)amino]methyl}-4-fluoro-6-hydroxy-2,3-dihydro-1-benzofuran-5-yl]-1λ^6,2,5-thiadiazolidine-1,1,3-trione] | 0.01 to 0.1 | 0.848 | – | – | 0.01 to 0.1 | – | –
O=C1CN(c2c(O)cc3c(c2F)C[C@H](CNCC2COC2)O3)S(=O)(=O)N1 [Compound 120, 5-[(2R)-4-fluoro-6-hydroxy-2-({[(oxetan-3-yl)methyl]amino}methyl)-2,3-dihydro-1-benzofuran-5-yl]-1λ^6,2,5-thiadiazolidine-1,1,3-trione] | 0.01 to 0.1 | 1.61 | – | – | 0.01 to 0.1 | – | –
O=C1CN(c2c(O)cc3c(c2F)C[C@H](CNCCC2(CO)CCC2)O3)S(=O)(=O)N1 [Compound 121, 5-{(2R)-4-fluoro-6-hydroxy-2-[({2-[1-(hydroxymethyl)cyclobutyl]ethyl}amino)methyl]-2,3-dihydro-1-benzofuran-5-yl}-1λ^6,2,5-thiadiazolidine-1,1,3-trione] | 0.01 to 0.1 | 1.74 | – | – | 0.01 to 0.1 | – | –
O=C1CN(c2c(O)cc3c(c2F)C[C@H](CNCCC2(CO)CCCC2)O3)S(=O)(=O)N1 [Compound 122, 5-{(2R)-4-fluoro-6-hydroxy-2-[({2-[1-(hydroxymethyl)cyclopentyl]ethyl}amino)methyl]-2,3-dihydro-1-benzofuran-5-yl}-1λ^6,2,5-thiadiazolidine-1,1,3-trione] | 0.01 to 0.1 | 1.98 | – | – | 0.01 to 0.1 | – | –

Continued, in another order:

IC50 [2] [µM] | EC50 [3, 5] [µM] | EC50 [3, 6] [µM] | Compound | IC50 [1, 4] [µM] | IC50 ([1]; enzyme 0.5 nM, substrate 2 μM) [µM] | Dihydrobenzofuran or Indoline x-fold>potency biochemical [1] | Dihydrobenzofuran or Indoline x-fold>potency cellular [3]
0.01 to 0.1 | 1.35 | – | CCCNC[C@H]1Cc2c(cc(O)c(N3CC(=O)NS3(=O)=O)c2F)O1 [Compound 109, 5-{(2R)-4-fluoro-6-hydroxy-2-[(propylamino)methyl]-2,3-dihydro-1-benzofuran-5-yl}-1λ^6,2,5-thiadiazolidine-1,1,3-trione] | – | 0.01 to 0.1 | – | –
0.01 to 0.1 | 1.11 | – | CCCCNC[C@H]1Cc2c(cc(O)c(N3CC(=O)NS3(=O)=O)c2F)O1 [Compound 111, 5-{(2R)-2-[(butylamino)methyl]-4-fluoro-6-hydroxy-2,3-dihydro-1-benzofuran-5-yl}-1λ^6,2,5-thiadiazolidine-1,1,3-trione] | – | 0.01 to 0.1 | – | –
0.01 to 0.1 | 0.776 | – | CCNC[C@H]1Cc2c(cc(O)c(N3CC(=O)NS3(=O)=O)c2F)O1 [Compound 112, 5-{(2R)-2-[(ethylamino)methyl]-4-fluoro-6-hydroxy-2,3-dihydro-1-benzofuran-5-yl}-1λ^6,2,5-thiadiazolidine-1,1,3-trione] | – | 0.01 to 0.1 | – | –
0.01 to 0.1 | 0.835 | 0.835 | CC(C)CCNC[C@H]1Cc2c(cc(O)c(N3CC(=O)NS3(=O)=O)c2F)O1 [Compound 115, 5-[(2R)-4-fluoro-6-hydroxy-2-{[(3-methylbutyl)amino]methyl}-2,3-dihydro-1-benzofuran-5-yl]-1λ^6,2,5-thiadiazolidine-1,1,3-trione] | 0.0171 | 0.01 to 0.1 | 0.9 | 8.3
0.01 to 0.1 | 0.736 | – | CCC(C)CNC[C@H]1Cc2c(cc(O)c(N3CC(=O)NS3(=O)=O)c2F)O1 (stereo partly drawn) [Compound 116, 5-[(2R)-4-fluoro-6-hydroxy-2-{[(2-methylbutyl)amino]methyl}-2,3-dihydro-1-benzofuran-5-yl]-1λ^6,2,5-thiadiazolidine-1,1,3-trione] | – | 0.01 to 0.1 | – | –
